Where a SMILES comes first, the peptide text is derived from it. [ ]: non-standard residue; d: D form. The star is where a group is joined. NH(TEMPO-4-yl) = CC1(C)CC(N*)CC(C)(C)N1[O]; Orn = NCCC[C@H](N)C(=O)O; Cbz = O=C(OCc1ccccc1)*; Boc = CC(C)(C)OC(=O)*
Legend:
[1] = test system: KM101 human marrow stromal cells; assay: Irradiation survival curves of KM101 cells; type: cell-based
Description: KM101 cells were incubated in media alone or in JP4-039 (10 μM) for one hour before irradiation or 24 hours after irradiation. The cells were irradiated to doses ranging from 0 to 6 Gy and plated in 4 well plates. Seven days later the cells were stained with crystal violet and colonies of greater than 50 cells counted. Cells incubated in JP4-039 either before or after irradiation were more radioresistant as shown by an increased shoulder of n=2.3±0.2 or 2.2±0.2, respectively compared to n of 1.1±0.1for the KM101 cells (p=0.0309 or 0.0386, respectively).

NOD/SCID mice = assay: Proposed: human CD34+ cord blood stem cell seeding into irradiated limbs of NOD/SCID mice; conditions: mouse, in vivo
Excerpt: Selection and optimization of a GS-nitroxide JP4-039 therapy to enhance human CD34+ cord blood multilineage hematopoietic stem cell progenitor cell seeding into irradiated limbs of NOD/SCID mice that have been prepared by engraftment of human marrow stromal cells.
2. Experiments using the optimal seeding protocol for human KM101 cells into irradiated NOD/SCID mice (anticipated to be those mice receiving MnSOD-PL prior to irradiation, and then injection with KM101-MnSOD/ds-red, supplemented with JP4-039 daily). Mice can then receive intravenous injection of 1×10^5 or 1×10^6 CD34+ LIN− cells from human umbilical cord blood origin. Control cells may be CD34+ LIN+ (differentiated progenitor) cells 10^5 or 10^6 per injection. Groups of 12 mice. These experiments may be carried out in two schedules. • a. […]
In these experiments, mice can be followed and tested at serial time points out to two months after cord blood stem cell transplantation. The percent of human peripheral blood hematopoietic cells can be scored in weekly peripheral blood samples and number of cells forming CFU-GEMM colonies can be tested in explanted bones from sacrificed mice. […]
Experiments in vitro supplementing in co-cultivation culture media the drug JP4-039 daily. […] Stromal cell cultures may be irradiated, cord blood cells added, and cultures scored as above. […]

mouse embryonic cells = assay: Gamma-irradiation dose survival curves of mouse embryonic cells; type: cell-based; conditions: 20 μM pre- (10-min) or post-treated (1-h)
Description: Cells were plated in 35-mm Petri dishes with 2 ml culture medium at a density between 100 and 1000 cells per dish. Cells were treated with GS-nitroxide (XJB-5-125) either before (10-min) or after (1-h) γ-irradiation. XJB-5-125 was removed from the medium 4-h post-irradiation. Colonies were fixed and stained with 0.25% crystal violet and 10% formalin (35% v/v) in 80% methanol for 30 min after a 9-day incubation period, and those of ≧50 cells were counted as survivors. The surviving fraction was calculated as the plating efficiency of the samples relative to that of the control.
Cells were pre- (10-min) or post-treated (1-h) with XJB-5-125 (20 μM), which was removed after 4-h incubation period. The surviving fraction was calculated as the plating efficiency of the samples relative to that of the control. The data was fitted to a single-hit multitarget model using SigmaPlot 9.0 (Systat Software). Data presented are the mean±S.E. (n=3).

Structure (SMILES)	n (shoulder on the survival curve) ([1]; 10 μM 24 hours after irradiation)	change in Do ([1]; 10 μM before or after irradiation)	n (shoulder on the survival curve) ([1]; 10 μM one hour before irradiation)	hematopoietic cell survival and CFU-GEMM numbers (NOD/SCID mice)	radiation mitigation and protection (FIG. 15 survival curves) (mouse embryonic cells)
CC(C)C[C@@H](/C=C/CC(=O)NC1CC(C)(C)N([O])C(C)(C)C1)NC(=O)OC(C)(C)C [JP4-039, (S,E)-5-(tert-Butoxycarbonylamino)-7-methyloct-3-enoic acid-TEMPO]	2.2±0.2	no significant change	2.3±0.2	further enhance hematopoietic cell survival and increase CFU-GEMM in numbers	–
CC(C)C[C@H](NC(=O)OC(C)(C)C)C(=O)N[C@H](Cc1ccccc1)C(=O)N1CCC[C@H]1C(=O)N[C@H](C(=O)N[C@@H](CCCNC(=O)OCc1ccccc1)C(=O)NC1CC(C)(C)N([O])C(C)(C)C1)C(C)C [XJB-5-125] (Boc-L[dF]PV[Orn](Cbz)-{NH(TEMPO-4-yl)})	–	–	–	–	radiation mitigator as well as a protector

Reference: patent publication US8748369B2, “Use of targeted nitroxide agents in bone healing” (University of Pittsburgh-Of the Commonwealth System of …, priority 2009, dated 2014)
